Legend:
[1] = test system: DE1069; experiment: Cell death of other cancer cell lines: DE1069; type: cell-based; conditions: DE1069, Sarcoma, Mouse
Method: The PROTACs prepared herein were tested for their use in other cancer cell lines to determine activity in multiple different types of cancer.

[2] = target: Mdm2-VHL (Homo sapiens, UniProt P40337+Q00987); experiment: AlphaScreen ternary complex formation; type: binding; conditions: GST-MDM2 and HIS-VHL
From the text: A. Chemical structure of MDM2-PROTAC. B-C. MDM2:p53 and MDM2:VHL-HIF1α peptide binding inhibition determined by homogeneous time-resolved fluorescence (HTRF, triplicate, mean±SEM, B) and surface plasmon resonance (SPR, triplicate, mean±SD, C. Binding assays by the indicated compounds. Graphical data is representative of 3 separate experiments. D. AlphaScreen of ternary complex using GST-MDM2 and HIS-VHL; mean±SD. E-F. Western blot analysis for the proteins indicated following a dose-titration (E, 16 hr) and time course (F, 6 μM) with the PROTAC or vehicle control (DMSO, −) in MDA-MB-231 (p53-mutant) and MDA-MB-436 (p53-delete) cells. G-K. Western blot analysis for the proteins indicated following treatment with the MDM2-PROTAC and/or the neddylation activating enzyme inhibitor MLN4924 G.

[3] = test system: TNBC patient mammospheres; experiment: Patient TNBC 3D mammosphere cultures; type: cell-based, human
Method: FIGS. 27A-27E show TP53 mutant TNBC patient-derived explants undergo apoptosis following treatment with the MDM2-PROTAC YX-02-030. A. TP53 sequenced in five fresh TNBC patient samples and used in explant and 3D mammosphere cultures. B-C. TNBC patient-derived explants were treated with the compounds indicated and Western blotting (B) and immunohistochemistry (IHC) of FFPE sections for cleaved Caspase-3 (C, n=3 paired patient samples) were performed. Representative images of H&E and cleaved Caspase-3 (CC3) IHC shown, including normal breast epithelium treated with MDM2-PROTAC YX-02-030; scale bar 300 m. D-E. Mammosphere cultures were established from TNBC patient samples, treated with the indicated compounds, and live-cell detection of Caspase-3/7 activity (D, quadruplicate) and mammosphere survival/ATP production (E, quadruplicate) were measured.
For three of the patient TNBC tumor samples there was enough tissue to also establish 3D mammosphere cultures, and for one of these patients, normal breast epithelial tissue was also received that generated loose cell clusters.

[4] = test system: non-cancerous cells; experiment: Western blot and MTT assay, non-cancerous cells
[5] = test system: p53-null mouse sarcoma cells; experiment: Murine Mdm2+/+ p53-null sarcoma cells, Western blot and MTT; type: cell-based
[6] = mammospheres from three patient tumors

Mdm2-VHL, sequence (Q00987 whole entry): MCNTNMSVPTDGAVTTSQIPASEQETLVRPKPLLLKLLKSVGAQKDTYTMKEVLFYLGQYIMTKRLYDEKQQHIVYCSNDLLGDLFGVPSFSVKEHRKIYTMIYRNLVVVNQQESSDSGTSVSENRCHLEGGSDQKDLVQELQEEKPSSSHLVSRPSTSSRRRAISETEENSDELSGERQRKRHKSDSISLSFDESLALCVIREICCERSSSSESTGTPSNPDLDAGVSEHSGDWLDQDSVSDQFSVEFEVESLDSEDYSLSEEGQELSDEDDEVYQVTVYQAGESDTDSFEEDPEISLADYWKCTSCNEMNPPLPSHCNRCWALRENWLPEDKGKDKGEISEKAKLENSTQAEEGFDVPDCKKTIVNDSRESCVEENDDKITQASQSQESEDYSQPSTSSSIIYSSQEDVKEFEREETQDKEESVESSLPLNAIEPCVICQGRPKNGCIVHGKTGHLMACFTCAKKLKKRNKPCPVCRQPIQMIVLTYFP
Mdm2-VHL, sequence (P40337 whole entry): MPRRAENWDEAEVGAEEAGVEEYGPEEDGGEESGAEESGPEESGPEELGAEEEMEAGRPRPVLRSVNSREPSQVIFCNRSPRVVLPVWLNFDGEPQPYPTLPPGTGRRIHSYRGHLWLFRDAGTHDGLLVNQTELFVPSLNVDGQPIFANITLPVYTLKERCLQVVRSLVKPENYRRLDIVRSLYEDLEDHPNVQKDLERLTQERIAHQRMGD
Mdm2-VHL, sequence (Q15370 whole entry partner): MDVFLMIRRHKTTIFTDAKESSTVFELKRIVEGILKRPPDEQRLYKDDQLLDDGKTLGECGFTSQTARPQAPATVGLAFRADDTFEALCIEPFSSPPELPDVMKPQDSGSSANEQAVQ
Mdm2-VHL, sequence (Q15369 whole entry partner): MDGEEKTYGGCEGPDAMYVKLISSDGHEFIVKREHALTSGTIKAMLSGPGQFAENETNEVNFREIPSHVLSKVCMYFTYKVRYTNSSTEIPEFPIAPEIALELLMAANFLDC

CCOc1cc(C(C)(C)C)ccc1C1=N[C@](C)(c2ccc(Cl)cc2)[C@](C)(c2ccc(Cl)cc2)N1C(=O)N1CCN(CC(=O)NCCOCCOCCOCC(=O)N[C@H](C(=O)N2C[C@H](O)C[C@H]2C(=O)NCc2ccc(-c3scnc3C)cc2)C(C)(C)C)CC1 (racemic) [YX-02-030]
IC50 [1]: 6.1 µM | ternary complex formation [2]: efficiently form a ternary complex | Caspase-3/7 activity [3, 6]: significantly increased Caspase-3/7 activity | mammosphere survival [3, 6]: reduced survival | effect on normal breast epithelial clusters ([3]; normal breast epithelial tissue of one patient): remained largely unaffected | sensitivity of non-cancerous cells [4]: resistant | p73 and apoptosis (cleaved caspase 3) ([5]; Western blots after 24 hrs): stabilized p73 and induced apoptosis | killing of p53-null sarcoma cells ([5]; increasing concentrations, MTT assay, 48 hrs): killed p53-null sarcoma cells
